Measurements: ChEMBL document CHEMBL1201862, “PubChem BioAssay data set” (2004)
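The compound was tested at five concentrations on cells cultured in 96-well plates, with a 48-hour exposure period. The concentration for 50% growth inhibition is given as GI50.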 Active and inactive are the calls of the source. No stated cut-off is given here; in the data, active = GI50 up to about 1.1 µM and inactive = higher. Residues, ends and D or L forms follow the SMILES beside them. *: point of attachment. Fmoc = O=C(OCC1c2ccccc2-c2ccccc21)*; Boc = CC(C)(C)OC(=O)*

Tests used:
Experiment in all cases: DTP human tumour cell line panel, 48 h
COLO 205 = test system: COLO 205
SK-MEL-2 = test system: SK-MEL-2
LOX IMVI = test system: LOX IMVI
MCF7 = test system: MCF7
NCI/ADR-RES = test system: NCI/ADR-RES
MDA-MB-435 = test system: MDA-MB-435
EKVX = test system: EKVX
MDA-N = test system: MDA-N
SR = test system: SR
ACHN = test system: ACHN
RPMI-8226 = test system: RPMI-8226
CAKI-1 = test system: CAKI-1
PC-3 = test system: PC-3
HCC 2998 = test system: HCC 2998
OVCAR-5 = test system: OVCAR-5
SF-539 = test system: SF-539
UO-31 = test system: UO-31
A498 = test system: A498
NCI-H522 = test system: NCI-H522

Structure (SMILES)	GI50 (COLO 205)	GI50 (SK-MEL-2)	GI50 (LOX IMVI)	GI50 (MCF7)	GI50 (NCI/ADR-RES)	GI50 (MDA-MB-435)	GI50 (EKVX)	GI50 (MDA-N)	GI50 (SR)	GI50 (ACHN)	GI50 (RPMI-8226)	GI50 (CAKI-1)	GI50 (PC-3)	GI50 (HCC 2998)	GI50 (OVCAR-5)	GI50 (SF-539)	GI50 (UO-31)	GI50 (A498)	GI50 (NCI-H522)
O=[N+]([O-])c1ccc2c(c1)=[N+]([O-])C1(CCCCC1)[N+]=2[O-]	12.1 µM (inactive)	22.1 µM (inactive)	19.9 µM (inactive)	16.1 µM (inactive)	26.2 µM (inactive)	13.7 µM (inactive)	15.5 µM (inactive)	18 µM (inactive)	6.43 µM (inactive)	19.6 µM (inactive)	10.2 µM (inactive)	20.4 µM (inactive)	17.5 µM (inactive)	18.3 µM (inactive)	20.5 µM (inactive)	18.5 µM (inactive)	19.6 µM (inactive)	–	–
N/C(=N\Nc1ccc(S(N)(=O)=O)cc1)c1cnccn1	> 100 µM (inactive)	> 100 µM (inactive)	> 100 µM (inactive)	> 100 µM (inactive)	> 100 µM (inactive)	> 100 µM (inactive)	> 100 µM (inactive)	> 100 µM (inactive)	> 100 µM (inactive)	> 100 µM (inactive)	> 100 µM (inactive)	> 100 µM (inactive)	> 100 µM (inactive)	> 100 µM (inactive)	> 100 µM (inactive)	–	> 100 µM (inactive)	> 100 µM (inactive)	> 100 µM (inactive)
CC12CCCCC1=[N+]([O-])C(C)(C)N2O (stereo unspecified)	> 100 µM (inactive)	> 100 µM (inactive)	> 100 µM (inactive)	> 100 µM (inactive)	> 100 µM (inactive)	> 100 µM (inactive)	> 100 µM (inactive)	> 100 µM (inactive)	> 100 µM (inactive)	> 100 µM (inactive)	> 100 µM (inactive)	> 100 µM (inactive)	> 100 µM (inactive)	> 100 µM (inactive)	> 100 µM (inactive)	> 100 µM (inactive)	> 100 µM (inactive)	–	–
Nc1ncnc2c1ncn2[C@@H]1C[C@H]1CO	–	> 100 µM (inactive)	> 100 µM (inactive)	> 100 µM (inactive)	> 100 µM (inactive)	> 10 µM (inactive)	> 100 µM (inactive)	> 100 µM (inactive)	> 100 µM (inactive)	> 100 µM (inactive)	> 100 µM (inactive)	–	> 100 µM (inactive)	> 100 µM (inactive)	> 100 µM (inactive)	> 100 µM (inactive)	> 100 µM (inactive)	> 100 µM (inactive)	> 100 µM (inactive)
O=C(NNC(=S)Nc1ccc(Cl)cc1)c1cc(-c2ccccc2)nc2ccccc12	4.99 µM (inactive)	2.56 µM (inactive)	–	4.01 µM (inactive)	5.27 µM (inactive)	2.82 µM (inactive)	–	3.25 µM (inactive)	2.21 µM (inactive)	10 µM (inactive)	4.08 µM (inactive)	4.71 µM (inactive)	3.42 µM (inactive)	3.53 µM (inactive)	10.3 µM (inactive)	3.69 µM (inactive)	5.28 µM (inactive)	–	5.64 µM (inactive)
C[C@@H](NC(=O)[C@@H]1C[C@]1(C)CO)c1cccc2ccccc12	> 100 µM (inactive)	> 100 µM (inactive)	–	> 100 µM (inactive)	> 100 µM (inactive)	> 100 µM (inactive)	> 100 µM (inactive)	> 100 µM (inactive)	> 100 µM (inactive)	> 100 µM (inactive)	> 100 µM (inactive)	> 100 µM (inactive)	> 100 µM (inactive)	> 100 µM (inactive)	> 100 µM (inactive)	–	> 100 µM (inactive)	> 100 µM (inactive)	–
COc1ccc(-c2sc(Br)c3c2C(=O)C2OC(=O)NC32)cc1OC (stereo unspecified)	> 100 µM (inactive)	> 100 µM (inactive)	45.2 µM (inactive)	> 100 µM (inactive)	> 100 µM (inactive)	> 100 µM (inactive)	> 100 µM (inactive)	> 100 µM (inactive)	> 100 µM (inactive)	> 100 µM (inactive)	> 100 µM (inactive)	> 100 µM (inactive)	> 100 µM (inactive)	–	> 100 µM (inactive)	> 100 µM (inactive)	> 100 µM (inactive)	> 100 µM (inactive)	> 100 µM (inactive)
CC(C)(C)OC(=O)NCCCCC(NC(=O)C(Cc1c[nH]c2ccccc12)NC(=O)OCC1c2ccccc2-c2ccccc21)C(=O)N1CCCC1C(=O)NCC(N)=O (stereo unspecified) (Fmoc-WK(Boc)PG-NH2; configuration not given here)	> 100 µM (inactive)	> 100 µM (inactive)	> 100 µM (inactive)	> 100 µM (inactive)	> 100 µM (inactive)	> 100 µM (inactive)	> 100 µM (inactive)	> 100 µM (inactive)	> 100 µM (inactive)	> 100 µM (inactive)	> 100 µM (inactive)	> 100 µM (inactive)	> 100 µM (inactive)	> 100 µM (inactive)	> 100 µM (inactive)	> 100 µM (inactive)	> 100 µM (inactive)	–	> 100 µM (inactive)
C=C1CC(C)(COc2ccc3c(C)c(Cl)c(=O)oc3c2)OC1=O (stereo unspecified)	0.729 µM (active)	1.44 µM (inactive)	0.964 µM (active)	1.24 µM (inactive)	2.35 µM (inactive)	2.97 µM (inactive)	5.9 µM (inactive)	0.762 µM (active)	0.865 µM (active)	2.82 µM (inactive)	0.391 µM (active)	0.59 µM (active)	2.52 µM (inactive)	1.81 µM (inactive)	4.23 µM (inactive)	3.61 µM (inactive)	3.34 µM (inactive)	–	0.632 µM (active)
Oc1ccc(Cl)cc1-c1nc(S)nc(-c2ccccc2)c1Cl	> 100 µM (inactive)	69.8 µM (inactive)	> 56.9 µM (inactive)	> 100 µM (inactive)	> 100 µM (inactive)	> 100 µM (inactive)	–	> 100 µM (inactive)	> 100 µM (inactive)	> 90.8 µM (inactive)	> 100 µM (inactive)	48.1 µM (inactive)	> 100 µM (inactive)	–	> 100 µM (inactive)	> 10 µM (inactive)	> 88.5 µM (inactive)	51.9 µM (inactive)	> 31.6 µM (inactive)
COc1cc(C2c3cc4c(cc3OC(C)(O)C2C)OCO4)cc(OC)c1OC (stereo unspecified)	0.49 µM (active)	–	0.692 µM (active)	0.375 µM (active)	0.316 µM (active)	0.118 µM (active)	28.6 µM (inactive)	0.0555 µM (active)	0.379 µM (active)	0.938 µM (active)	0.237 µM (active)	12.2 µM (inactive)	0.306 µM (active)	0.646 µM (active)	> 100 µM (inactive)	0.277 µM (active)	0.857 µM (active)	13.9 µM (inactive)	0.235 µM (active)
CCc1nnc(CC)n1N1C(=O)CCC1=O	> 100 µM (inactive)	> 100 µM (inactive)	> 100 µM (inactive)	> 100 µM (inactive)	> 100 µM (inactive)	> 100 µM (inactive)	> 100 µM (inactive)	> 100 µM (inactive)	> 100 µM (inactive)	> 100 µM (inactive)	> 100 µM (inactive)	–	> 100 µM (inactive)	> 100 µM (inactive)	> 100 µM (inactive)	> 100 µM (inactive)	> 100 µM (inactive)	–	> 100 µM (inactive)
CCN(CC(O)COc1ccc2c(c1)[n+]([O-])nc(N)[n+]2[O-])C(C)=O (stereo unspecified)	3.7 µM (inactive)	> 100 µM (inactive)	76.6 µM (inactive)	91 µM (inactive)	> 100 µM (inactive)	> 100 µM (inactive)	> 100 µM (inactive)	> 100 µM (inactive)	> 100 µM (inactive)	> 100 µM (inactive)	> 100 µM (inactive)	> 100 µM (inactive)	> 100 µM (inactive)	–	> 100 µM (inactive)	> 100 µM (inactive)	> 100 µM (inactive)	62.1 µM (inactive)	31.1 µM (inactive)
c1ccc(-c2c(-c3cccs3)[nH]c(-c3cccs3)c2-c2ccccn2)nc1	15 µM (inactive)	–	12.4 µM (inactive)	> 10 µM (inactive)	17.2 µM (inactive)	15.7 µM (inactive)	22.9 µM (inactive)	0.199 µM (active)	26.2 µM (inactive)	30.5 µM (inactive)	20 µM (inactive)	37.4 µM (inactive)	10.6 µM (inactive)	20.2 µM (inactive)	30.5 µM (inactive)	20.4 µM (inactive)	19.2 µM (inactive)	27.5 µM (inactive)	–
O=C1NC(Cc2c[nH]c3ccccc23)C(=O)N2C(c3ccccc3)c3[nH]c4ccccc4c3C[C@@H]12 (stereo partly specified)	21.1 µM (inactive)	23.8 µM (inactive)	19.7 µM (inactive)	15.7 µM (inactive)	21.6 µM (inactive)	18.8 µM (inactive)	22.5 µM (inactive)	17.6 µM (inactive)	12.8 µM (inactive)	29.4 µM (inactive)	20 µM (inactive)	25.5 µM (inactive)	18.7 µM (inactive)	–	22 µM (inactive)	–	23.5 µM (inactive)	29.8 µM (inactive)	18.1 µM (inactive)
COC(=O)c1ccc(NCC2=CC(=O)C=CC2=O)cc1O	13.2 µM (inactive)	44.2 µM (inactive)	16.8 µM (inactive)	20.8 µM (inactive)	18.1 µM (inactive)	29.4 µM (inactive)	17.7 µM (inactive)	16.4 µM (inactive)	> 100 µM (inactive)	13.8 µM (inactive)	–	18.6 µM (inactive)	31.8 µM (inactive)	–	18.8 µM (inactive)	13.5 µM (inactive)	12.7 µM (inactive)	17.2 µM (inactive)	2.11 µM (inactive)
